Results published in patent publication US20260364184A1, “COMPOUND BASED ON OXOISOINDOLINYL-SUBSTITUTED TETRAHYDROPYRIMIDINE-DIONE AND USE THEREOF” (GLUETACS THERAPEUTICS (SHANGHAI) CO., LTD., priority 2023, published 2026).

How the values were obtained:
Type in all cases: cell-based
C-ABL = target: T1, C-ABL (Homo sapiens, UniProt P00519); assay: Western blot degradation of C-ABL; conditions: K562 Cell; 24 hours
T1 construct: K562 also holds p210 BCR-ABL (BCR P11274 fused to ABL1)
Procedure: (§1) Conventional Western blot assay was performed to evaluate the effects of the compounds of the present disclosure on the expression of target proteins in cells.
(§2) (1) Cell Seeding and Protein Harvesting: The selected cells were processed according to the cell seeding procedure and protein harvesting procedure in Table II-2.
(§3) (2) To the collected supernatant, 5×SDS sample loading buffer was added, followed by denaturation at 95 °C for 5 minutes. The denatured samples were then separated by SDS-PAGE electrophoresis on a polyacrylamide gel. Proteins were transferred to a nitrocellulose membrane (0.45 μm NC membrane), blocked with blocking buffer at room temperature for 1 hour, and subjected to antibody incubation and development procedures according to the antibody manufacturer's instructions (Cell Signaling Technology).
(§4) Half-Maximal Degradation Concentration value (the drug concentration required for degrading proteins by 50%, abbreviated as DC50) reads method: comparing the grayscale values of Western blot bands from drug-treated samples with those from blank DMSO-treated controls, and identifying the drug concentration range at which the grayscale value is half that of the DMSO-treated control bands.
(§5) DC50 values can be calculated using ImageJ software to measure grayscale values of Western blot bands from drug-treated samples. The concentration-response curve is fitted to estimate the drug concentration corresponding to half the grayscale value.
(§6) Target protein remaining (%) refers to the percentage of target protein remaining in cells after treatment with protein degrader compounds.
(§7) Calculation method for target protein remaining (%): Use ImageJ software to measure grayscale values of Western blot bands from drug (protein degrader)-treated samples. The grayscale value of drug-treated bands is divided by that of internal control protein bands, and the resulting quotient is normalized to obtain the relative percentage of remaining target protein after protein degrader treatment.
(§8) Target protein degradation rate (%)=1−target protein remaining (%).

[1] = system: Human Multiple myeloma cell line (MM.1S); assay: Inhibition of MM.1S cell proliferation (CellTiter luminescent viability); conditions: Homo sapiens, MM1.S, Table IL1, BCR-ABL inhibitor-based, 96 hours; for inhibition at 0.01 µM: 10 nM, read-out: Inhibition Rate at 10 nM (%); for inhibition at 0.5 µM: 500 nM, read-out: Inhibition Rate at 500 nM (%)
In short: (§9)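 Cells are seeded in 96-well plates, cultured at 37 °C, 5% CO2, and treated next day with 5-fold serial compound dilutions (stock series from 2000 μM; 0.5 μL into 100 μL medium). Viability is read by CellTiter-Meiluncell luminescence after the set exposure, and IC50 is taken from growth-inhibition curves.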

[2] = system: Human acute lymphocytic leukemia T lymphocytes cell line (CCRF-CEM); assay: Inhibition of CCRF-CEM cell proliferation (CellTiter luminescent viability); conditions: Homo sapiens, 96 h, Table IL3, BCR-ABL inhibitor-based; for inhibition at 0.01 µM: 10 nM, read-out: Inhibition Rate at 10 nM (%); for inhibition at 0.5 µM: 500 nM, read-out: Inhibition Rate at 500 nM (%)
[3] = system: Human myeloid monocytic leukemia cell line (MV-4-11); assay: Inhibition of MV-4-11 cell proliferation (CellTiter luminescent viability); conditions: Homo sapiens, MV4-11, Table IL2, BCR-ABL inhibitor-based, 96 hours; for inhibition at 0.01 µM: MV-4-11, 10 nM, read-out: Inhibition Rate at 10 nM (%); for inhibition at 0.5 µM: MV-4-11, 500 nM, read-out: Inhibition Rate at 500 nM (%)
In short: as §9

BRM = target: T2, BRM (Homo sapiens, UniProt P51531); assay: Western blot degradation of BRM (SMARCA2); conditions: Molt-4 Cell; 24 hours
T2 construct: expression of target proteins in cells; endogenous in cells
T2 sequence (P51531 whole entry): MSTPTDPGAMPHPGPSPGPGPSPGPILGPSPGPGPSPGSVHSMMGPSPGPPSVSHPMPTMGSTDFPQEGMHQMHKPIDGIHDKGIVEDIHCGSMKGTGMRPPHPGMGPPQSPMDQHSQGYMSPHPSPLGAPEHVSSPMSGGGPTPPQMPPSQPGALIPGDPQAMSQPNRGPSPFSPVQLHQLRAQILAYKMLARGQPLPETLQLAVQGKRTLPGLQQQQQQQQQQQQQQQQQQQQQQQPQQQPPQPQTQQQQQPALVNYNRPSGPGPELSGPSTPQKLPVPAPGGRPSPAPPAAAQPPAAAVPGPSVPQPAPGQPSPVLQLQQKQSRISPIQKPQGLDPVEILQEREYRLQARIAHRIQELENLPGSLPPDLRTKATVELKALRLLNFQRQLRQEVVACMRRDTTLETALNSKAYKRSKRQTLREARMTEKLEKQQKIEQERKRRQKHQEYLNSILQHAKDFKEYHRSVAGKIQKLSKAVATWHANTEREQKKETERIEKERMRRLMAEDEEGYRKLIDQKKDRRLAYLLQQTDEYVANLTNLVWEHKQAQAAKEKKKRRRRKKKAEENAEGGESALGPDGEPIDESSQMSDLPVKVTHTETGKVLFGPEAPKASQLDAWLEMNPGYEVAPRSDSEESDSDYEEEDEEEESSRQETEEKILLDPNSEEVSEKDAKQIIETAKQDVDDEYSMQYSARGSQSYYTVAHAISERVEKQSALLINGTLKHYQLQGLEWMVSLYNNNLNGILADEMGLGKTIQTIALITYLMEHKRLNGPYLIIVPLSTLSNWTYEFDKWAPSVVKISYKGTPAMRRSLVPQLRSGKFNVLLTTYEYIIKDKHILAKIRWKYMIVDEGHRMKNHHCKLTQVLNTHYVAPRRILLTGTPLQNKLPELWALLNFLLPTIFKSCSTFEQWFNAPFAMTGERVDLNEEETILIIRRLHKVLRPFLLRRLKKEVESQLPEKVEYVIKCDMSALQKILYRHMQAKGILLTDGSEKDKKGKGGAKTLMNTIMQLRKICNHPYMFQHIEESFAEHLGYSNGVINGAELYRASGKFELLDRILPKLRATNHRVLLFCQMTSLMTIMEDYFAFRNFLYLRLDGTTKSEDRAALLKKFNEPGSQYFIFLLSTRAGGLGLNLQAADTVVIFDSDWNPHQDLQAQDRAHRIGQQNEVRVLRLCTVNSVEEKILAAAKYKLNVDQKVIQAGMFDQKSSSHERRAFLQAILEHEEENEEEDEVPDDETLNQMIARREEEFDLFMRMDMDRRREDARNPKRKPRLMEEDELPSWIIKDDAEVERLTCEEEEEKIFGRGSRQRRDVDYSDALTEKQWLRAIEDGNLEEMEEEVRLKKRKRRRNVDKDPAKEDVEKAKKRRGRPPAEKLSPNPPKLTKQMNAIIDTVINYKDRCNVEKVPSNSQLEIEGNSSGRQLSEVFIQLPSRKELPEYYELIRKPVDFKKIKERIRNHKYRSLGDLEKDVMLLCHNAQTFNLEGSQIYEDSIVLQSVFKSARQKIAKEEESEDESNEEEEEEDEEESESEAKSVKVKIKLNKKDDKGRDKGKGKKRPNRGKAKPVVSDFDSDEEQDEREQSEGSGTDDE
Procedure: as §1, §2, §3, §4, §5, §6, §7, §8

BRG1 = target: T3, BRG1 (Homo sapiens, UniProt P51532); assay: Western blot degradation of BRG1 (SMARCA4); conditions: Molt-4 Cell; 24 hours
T3 construct: expression of target proteins in cells; endogenous in cells
T3 sequence (P51532 whole entry): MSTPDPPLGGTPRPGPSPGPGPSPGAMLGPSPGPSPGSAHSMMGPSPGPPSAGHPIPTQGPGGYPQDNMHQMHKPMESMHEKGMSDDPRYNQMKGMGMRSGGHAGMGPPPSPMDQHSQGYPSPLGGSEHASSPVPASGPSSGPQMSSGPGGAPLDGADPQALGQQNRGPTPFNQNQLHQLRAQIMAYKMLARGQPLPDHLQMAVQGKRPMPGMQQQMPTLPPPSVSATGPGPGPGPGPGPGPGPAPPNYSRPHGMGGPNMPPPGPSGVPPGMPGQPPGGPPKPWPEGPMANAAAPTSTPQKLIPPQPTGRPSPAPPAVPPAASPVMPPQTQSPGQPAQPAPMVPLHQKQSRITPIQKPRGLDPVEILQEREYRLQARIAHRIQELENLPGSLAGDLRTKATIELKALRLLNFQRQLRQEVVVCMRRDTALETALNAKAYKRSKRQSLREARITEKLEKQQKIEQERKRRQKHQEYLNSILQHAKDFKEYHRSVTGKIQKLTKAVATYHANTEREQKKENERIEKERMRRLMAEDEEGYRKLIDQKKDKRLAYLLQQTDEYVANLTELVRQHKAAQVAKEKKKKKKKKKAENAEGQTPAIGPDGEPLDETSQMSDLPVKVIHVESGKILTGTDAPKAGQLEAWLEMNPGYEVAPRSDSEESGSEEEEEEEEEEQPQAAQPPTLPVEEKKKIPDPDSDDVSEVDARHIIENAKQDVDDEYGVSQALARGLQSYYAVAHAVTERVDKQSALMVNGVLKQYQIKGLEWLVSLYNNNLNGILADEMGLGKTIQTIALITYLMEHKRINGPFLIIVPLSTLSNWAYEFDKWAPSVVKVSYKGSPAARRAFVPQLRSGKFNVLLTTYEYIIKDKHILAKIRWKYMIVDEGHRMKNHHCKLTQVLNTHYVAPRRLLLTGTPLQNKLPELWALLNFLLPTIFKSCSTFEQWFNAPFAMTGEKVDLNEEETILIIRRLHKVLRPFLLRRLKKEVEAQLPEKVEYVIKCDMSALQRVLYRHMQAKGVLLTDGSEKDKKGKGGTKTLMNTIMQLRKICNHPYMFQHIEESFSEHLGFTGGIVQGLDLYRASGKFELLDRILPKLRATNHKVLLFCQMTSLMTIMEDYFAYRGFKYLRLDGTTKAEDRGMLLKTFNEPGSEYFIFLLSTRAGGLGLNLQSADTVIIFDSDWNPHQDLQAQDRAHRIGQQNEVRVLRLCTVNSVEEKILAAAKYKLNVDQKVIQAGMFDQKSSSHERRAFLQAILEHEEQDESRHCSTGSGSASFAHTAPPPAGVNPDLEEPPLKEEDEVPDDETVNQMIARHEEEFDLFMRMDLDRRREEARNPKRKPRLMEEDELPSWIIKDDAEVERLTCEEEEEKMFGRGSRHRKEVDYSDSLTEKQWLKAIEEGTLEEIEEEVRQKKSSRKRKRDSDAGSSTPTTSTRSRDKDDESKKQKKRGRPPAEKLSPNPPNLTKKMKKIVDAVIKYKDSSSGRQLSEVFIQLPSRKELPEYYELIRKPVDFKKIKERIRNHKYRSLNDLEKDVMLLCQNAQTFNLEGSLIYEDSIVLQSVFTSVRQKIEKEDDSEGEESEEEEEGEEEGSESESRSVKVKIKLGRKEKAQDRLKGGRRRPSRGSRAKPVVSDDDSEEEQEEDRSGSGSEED
Procedure: as §1, §2, §3, §4, §5, §6, §7, §8

T1 sequence (P00519 whole entry, the tested form may be a part): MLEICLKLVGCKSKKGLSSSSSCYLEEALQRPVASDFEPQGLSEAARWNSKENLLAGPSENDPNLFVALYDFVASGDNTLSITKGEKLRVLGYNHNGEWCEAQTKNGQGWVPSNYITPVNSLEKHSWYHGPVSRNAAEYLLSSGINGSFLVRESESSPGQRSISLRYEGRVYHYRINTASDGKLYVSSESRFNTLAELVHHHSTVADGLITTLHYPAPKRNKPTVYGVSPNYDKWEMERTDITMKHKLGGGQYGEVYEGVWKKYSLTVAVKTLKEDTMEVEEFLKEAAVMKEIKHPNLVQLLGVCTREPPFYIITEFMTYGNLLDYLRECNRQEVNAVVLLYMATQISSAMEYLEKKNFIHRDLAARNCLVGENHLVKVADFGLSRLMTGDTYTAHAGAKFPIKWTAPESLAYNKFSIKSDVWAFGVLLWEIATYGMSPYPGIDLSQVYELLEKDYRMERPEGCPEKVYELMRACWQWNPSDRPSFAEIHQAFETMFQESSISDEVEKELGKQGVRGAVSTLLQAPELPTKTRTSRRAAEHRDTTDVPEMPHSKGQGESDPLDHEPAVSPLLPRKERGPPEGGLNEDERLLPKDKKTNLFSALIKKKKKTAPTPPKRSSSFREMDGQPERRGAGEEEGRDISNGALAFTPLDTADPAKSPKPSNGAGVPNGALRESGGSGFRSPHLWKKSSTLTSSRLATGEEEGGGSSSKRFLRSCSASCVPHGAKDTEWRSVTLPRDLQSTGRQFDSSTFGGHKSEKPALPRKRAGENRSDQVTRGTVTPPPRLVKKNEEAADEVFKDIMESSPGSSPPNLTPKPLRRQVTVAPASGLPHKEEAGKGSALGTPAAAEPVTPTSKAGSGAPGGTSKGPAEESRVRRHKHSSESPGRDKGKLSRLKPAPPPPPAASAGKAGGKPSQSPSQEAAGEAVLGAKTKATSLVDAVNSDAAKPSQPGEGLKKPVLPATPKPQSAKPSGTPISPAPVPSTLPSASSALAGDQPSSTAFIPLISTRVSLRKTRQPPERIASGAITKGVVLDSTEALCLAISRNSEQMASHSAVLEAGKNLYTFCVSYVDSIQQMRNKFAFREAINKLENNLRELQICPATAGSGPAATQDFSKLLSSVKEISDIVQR
T1 sequence (Q96SW2 whole entry partner, the tested form may be a part): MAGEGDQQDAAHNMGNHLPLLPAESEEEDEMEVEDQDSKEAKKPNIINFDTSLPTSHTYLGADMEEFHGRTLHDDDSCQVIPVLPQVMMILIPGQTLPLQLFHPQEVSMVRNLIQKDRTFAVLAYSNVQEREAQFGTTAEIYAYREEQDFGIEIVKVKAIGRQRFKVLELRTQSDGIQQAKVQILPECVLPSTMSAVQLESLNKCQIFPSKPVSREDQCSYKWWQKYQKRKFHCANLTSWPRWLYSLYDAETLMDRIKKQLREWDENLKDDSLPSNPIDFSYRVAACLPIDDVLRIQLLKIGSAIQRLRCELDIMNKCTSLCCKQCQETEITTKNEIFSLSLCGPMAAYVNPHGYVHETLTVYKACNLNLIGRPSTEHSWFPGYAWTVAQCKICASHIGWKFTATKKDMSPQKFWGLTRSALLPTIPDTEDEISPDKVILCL

Degradation of substrate protein C-ABL; BCR-ABL (substrate protein remaining %) (C-ABL) | SMILES | inhibition at 0.01 µM [2] | inhibition at 0.5 µM [2] | further results
A (0%≤substrate protein remaining %≤80%) | O=C1CCN(N2C(=O)c3ccc(N4CCC(CN5CCC(N6CCN(c7ncc(C(=O)Nc8ccc(OC(F)(F)Cl)cc8)cc7-c7cc[nH]n7)CC6)CC5)CC4)cc3C2=O)C(=O)N1 [GT-08358, N-(4-(chlorodifluoromethoxy)phenyl)-6-(4-(1-((1-(2-(2,4-dioxotetrahydropyrimidin-1(2H)-yl)-1,3-dioxoisoindolin-5-yl)piperidin-4-yl)methyl)piperidin-4-yl)piperazin-1-yl)-5-(1H-pyrazol-3-yl)nicotinamide] |  |  | 
A (0%≤substrate protein remaining %≤80%) | O=C1CCN(N2C(=O)c3cccc(N4CCC(CN5CCN(c6ncc(C(=O)Nc7ccc(OC(F)(F)Cl)cc7)cc6-c6cc[nH]n6)CC5)CC4)c3C2=O)C(=O)N1 [GT-08357, N-(4-(chlorodifluoromethoxy)phenyl)-6-(4-((1-(2-(2,4-dioxotetrahydropyrimidin-1(2H)-yl)-1,3-dioxoisoindolin-4-yl)piperidin-4-yl)methyl)piperazin-1-yl)-5-(1H-pyrazol-3-yl)nicotinamide] |  |  | 
A (0%≤substrate protein remaining %≤80%) | O=C1CCN(N2C(=O)c3ccc(N4CCC(CN5CCN(C6CCN(c7ncc(C(=O)Nc8ccc(OC(F)(F)Cl)cc8)cc7-c7cc[nH]n7)CC6)CC5)CC4)cc3C2=O)C(=O)N1 [GT-08360, N-(4-(chlorodifluoromethoxy)phenyl)-6-(4-(4-((1-(2-(2,4-dioxotetrahydropyrimidin-1(2H)-yl)-1,3-dioxoisoindolin-5-yl)piperidin-4-yl)methyl)piperazin-1-yl)piperidin-1-yl)-5-(1H-pyrazol-3-yl)nicotinamide] | 20 to 30% | 30 to 40% | inhibition at 0.01 µM [1]: 5 to 10%; inhibition at 0.5 µM [1]: 20 to 30%
A (0%≤substrate protein remaining %≤80%) | Cc1ccc(C(=O)Nc2ccc(N3CCN(Cc4ccc5c(c4)C(=O)N(N4CCC(=O)NC4=O)C5=O)CC3)c(C(F)(F)F)c2)cc1C#Cc1cnc2cccnn12 [GT-08219, N-(4-(4-((2-(2,4-dioxotetrahydropyrimidin-1(2H)-yl)-1,3-dioxoisoindolin-5-yl)methyl)piperazin-1-yl)-3-(trifluoromethyl)phenyl)-3-(imidazo[1,2-b]pyridazin-3-ylethynyl)-4-methylbenzamide] |  |  | 
A (0%≤substrate protein remaining %≤80%) | O=C1CCN(N2C(=O)c3cccc(N4CCC(CN5CCC(N6CCN(c7ncc(C(=O)Nc8ccc(OC(F)(F)Cl)cc8)cc7-c7cc[nH]n7)CC6)CC5)CC4)c3C2=O)C(=O)N1 [GT-08359, N-(4-(chlorodifluoromethoxy)phenyl)-6-(4-(1-((1-(2-(2,4-dioxotetrahydropyrimidin-1(2H)-yl)-1,3-dioxoisoindolin-4-yl)piperidin-4-yl)methyl)piperidin-4-yl)piperazin-1-yl)-5-(1H-pyrazol-3-yl)nicotinamide] | 15 to 20% | 20 to 30% | inhibition at 0.01 µM [1]: 10 to 15%; inhibition at 0.5 µM [1]: 30 to 40%
A (0%≤substrate protein remaining %≤80%) | Cc1ccc(C(=O)Nc2ccc(CN3CCN(CC4CCN(c5ccc6c(c5)C(=O)N(N5CCC(=O)NC5=O)C6=O)CC4)CC3)c(C(F)(F)F)c2)cc1C#Cc1cnc2cccnn12 [GT-08352, N-(4-((4-((1-(2-(2,4-dioxotetrahydropyrimidin-1(2H)-yl)-1,3-dioxoisoindolin-5-yl)piperidin-4-yl)methyl)piperazin-1-yl)methyl)-3-(trifluoromethyl)phenyl)-3-(imidazo[1,2-b]pyridazin-3-ylethynyl)-4-methylbenzamide] | 15 to 20% | 20 to 30% | inhibition at 0.01 µM [3]: 30 to 40%; inhibition at 0.5 µM [3]: 80 to 100%
A (0%≤substrate protein remaining %≤80%) | Cc1ccc(C(=O)Nc2ccc(N3CCC(N(C)Cc4ccc5c(c4)CN(N4CCC(=O)NC4=O)C5=O)CC3)c(C(F)(F)F)c2)cc1C#Cc1cnc2cccnn12 [GT-08220, N-(4-(4-(((2-(2,4-dioxotetrahydropyrimidin-1(2H)-yl)-1-oxoisoindolin-5-yl)methyl)(methyl)amino)piperidin-1-yl)-3-(trifluoromethyl)phenyl)-3-(imidazo[1,2-b]pyridazin-3-ylethynyl)-4-methylbenzamide] |  |  | inhibition at 0.01 µM [3]: -5 to 0%; inhibition at 0.5 µM [3]: 80 to 100%
A (0%≤substrate protein remaining %≤80%) | O=C1CCN(N2C(=O)c3ccc(N4CCC(CN5CCN(c6ncc(C(=O)Nc7ccc(OC(F)(F)Cl)cc7)cc6-c6cc[nH]n6)CC5)CC4)cc3C2=O)C(=O)N1 [GT-08356, N-(4-(chlorodifluoromethoxy)phenyl)-6-(4-((1-(2-(2,4-dioxotetrahydropyrimidin-1(2H)-yl)-1,3-dioxoisoindolin-5-yl)piperidin-4-yl)methyl)piperazin-1-yl)-5-(1H-pyrazol-3-yl)nicotinamide] |  |  | inhibition at 0.01 µM [1]: 20 to 30%; inhibition at 0.5 µM [1]: 30 to 40%
 | Nc1nnc(-c2cc(F)ccc2O)cc1N1CCN(Cc2ccc3c(c2)CN(N2CCC(=O)NC2=O)C3=O)CC1 [GT-05061, 1-(5-((4-(3-amino-6-(5-fluoro-2-hydroxyphenyl)pyridazin-4-yl)piperazin-1-yl)methyl)-1-oxoisoindolin-2-yl)dihydropyrimidine-2,4 (1H,3H)-dione] |  |  | Degradation of substrate protein BRM (substrate protein remaining %) (BRM): A (0%≤substrate protein remaining %≤80%); Degradation of substrate protein BRG1 (substrate protein remaining %) (BRG1): B (80%<substrate protein remaining %≤100%)
 | Nc1nnc(-c2ccccc2O)cc1N1CCN(CC2CCN(c3ccc4c(c3)C(=O)N(N3CCC(=O)NC3=O)C4=O)CC2)CC1 [GT-04954, 5-(4-((4-(3-amino-6-(2-hydroxyphenyl)pyridazin-4-yl)piperazin-1-yl)methyl)piperidin-1-yl)-2-(2,4-dioxotetrahydropyrimidin-1(2H)-yl)isoindoline-1,3-dione] |  |  | Degradation of substrate protein BRM (substrate protein remaining %) (BRM): A (0%≤substrate protein remaining %≤80%); Degradation of substrate protein BRG1 (substrate protein remaining %) (BRG1): A (0%≤substrate protein remaining %≤80%)
 | Nc1nnc(-c2cc(F)ccc2O)cc1N1CCN(Cc2ccc3c(c2)C(=O)N(N2CCC(=O)NC2=O)C3=O)CC1 [GT-05072, 5-((4-(3-amino-6-(5-fluoro-2-hydroxyphenyl)pyridazin-4-yl)piperazin-1-yl)methyl)-2-(2,4-dioxotetrahydropyrimidin-1(2H)-yl)isoindoline-1,3-dione] |  |  | Degradation of substrate protein BRM (substrate protein remaining %) (BRM): A (0%≤substrate protein remaining %≤80%); Degradation of substrate protein BRG1 (substrate protein remaining %) (BRG1): B (80%<substrate protein remaining %≤100%)
A (0%≤substrate protein remaining %≤80%) | O=C1CCN(N2C(=O)c3cccc(N4CCC(CN5CCN(C6CCN(c7ncc(C(=O)Nc8ccc(OC(F)(F)Cl)cc8)cc7-c7cc[nH]n7)CC6)CC5)CC4)c3C2=O)C(=O)N1 [GT-08361, N-(4-(chlorodifluoromethoxy)phenyl)-6-(4-(4-((1-(2-(2,4-dioxotetrahydropyrimidin-1(2H)-yl)-1,3-dioxoisoindolin-4-yl)piperidin-4-yl)methyl)piperazin-1-yl)piperidin-1-yl)-5-(1H-pyrazol-3-yl)nicotinamide] | 20 to 30% | 20 to 30% | 
